Test results published in PubChem BioAssay (NCI).
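The compound was tested at five concentrations on cells cultured in 96-well plates, with a 48-hour exposure period. GI50: concentration for 50% inhibition of growth. TGI: concentration producing complete growth inhibition.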

Key:
Test in all cases: NCI-60 cell line screen, 48 h
[1] = tested on: NCI-H226 lung
[2] = tested on: NCI-H23 lung
[3] = tested on: NCI-H460 lung
[4] = tested on: NCI-H522 lung
[5] = tested on: OVCAR-3 ovarian
[6] = tested on: OVCAR-4 ovarian
[7] = tested on: OVCAR-5 ovarian
[8] = tested on: OVCAR-8 ovarian
[9] = tested on: PC-3 prostate
[10] = tested on: RPMI-8226 leukemia
[11] = tested on: RXF 393 renal
[12] = tested on: SF-268 CNS
[13] = tested on: SF-295 CNS
[14] = tested on: SF-539 CNS
[15] = tested on: SK-MEL-2 melanoma
[16] = tested on: SK-MEL-28 melanoma
[17] = tested on: SK-MEL-5 melanoma
[18] = tested on: SK-OV-3 ovarian
[19] = tested on: SN12C renal
[20] = tested on: SNB-19 CNS
[21] = tested on: SNB-75 CNS
[22] = tested on: SW-620 colon
[23] = tested on: T-47D breast
[24] = tested on: TK-10 renal
[25] = tested on: U251 CNS
[26] = tested on: UACC-257 melanoma
[27] = tested on: UACC-62 melanoma
[28] = tested on: UO-31 renal

In the case of `COC(=O)c1ccc(C2SCC(=O)N2NC(=O)C(O)c2ccccc2)cc1` (stereo not given), the TGI [1] is reported as greater than 100 µM, the GI50 [2] is reported as greater than 100 µM and the TGI [2] is reported as greater than 100 µM. The GI50 [3] was greater than 100 µM, the TGI [3] was greater than 100 µM and the GI50 [4] was greater than 100 µM. The TGI [4] was greater than 100 µM, the GI50 [5] was greater than 100 µM and the TGI [5] was greater than 100 µM. The GI50 [6] was greater than 100 µM, the TGI [6] was greater than 100 µM and the GI50 [7] was greater than 100 µM. The TGI [7] was greater than 100 µM, the GI50 [8] was greater than 100 µM and the TGI [8] was greater than 100 µM. The GI50 [9] was greater than 100 µM, the TGI [9] was greater than 100 µM and the GI50 [10] was greater than 100 µM. It also gave a TGI [10] greater than 100 µM, a GI50 [11] greater than 100 µM and a TGI [11] greater than 100 µM. It also gave a GI50 [12] greater than 100 µM, a TGI [12] greater than 100 µM and a GI50 [13] greater than 100 µM. For the same molecule, the TGI [13] was greater than 100 µM, the GI50 [14] was greater than 100 µM and the TGI [14] was greater than 100 µM. The GI50 [15] was greater than 100 µM, the TGI [15] was greater than 100 µM and the GI50 [16] was greater than 100 µM. For the same molecule, the TGI [16] was greater than 100 µM, the GI50 [17] was greater than 100 µM and the TGI [17] was greater than 100 µM. The GI50 [18] was greater than 100 µM, the TGI [18] was greater than 100 µM and the GI50 [19] was greater than 100 µM. For the same molecule, the TGI [19] was greater than 100 µM, the GI50 [20] was greater than 100 µM and the TGI [20] was greater than 100 µM. For the same molecule, the GI50 [21] was greater than 100 µM, the TGI [21] was greater than 100 µM and the GI50 [22] was greater than 100 µM. The TGI [22] was greater than 100 µM, the GI50 [23] was greater than 100 µM and the TGI [23] was greater than 100 µM. The GI50 [24] was greater than 100 µM, the TGI [24] was greater than 100 µM and the GI50 [25] was greater than 100 µM. The TGI [25] was greater than 100 µM, the GI50 [26] was greater than 100 µM and the TGI [26] was greater than 100 µM. The GI50 [27] was greater than 100 µM, the TGI [27] was greater than 100 µM and the GI50 [28] was greater than 100 µM. For the same molecule, the TGI [28] was greater than 100 µM.
